Reference: US20240116985A1, “STAPLED PEPTIDES AND METHODS THEREOF” (priority 2020, published 2024)
pIC50: −log10 of the molar value.

What was measured:
[1] = molecular target: T1, full-length beta-Catenin (Uniprot ID P35222) (Homo sapiens, UniProt P35222); experiment: Fluorescence polarization IC50 (beta-catenin / 5FAM-TCF4 10-53 competition); assay type: binding; conditions: fluorescence polarization; read-out: beta-Catenin FP IC50
T1 construct: 10 nM full-length beta-Catenin (Uniprot ID P35222)
T1 sequence (P35222 1-781): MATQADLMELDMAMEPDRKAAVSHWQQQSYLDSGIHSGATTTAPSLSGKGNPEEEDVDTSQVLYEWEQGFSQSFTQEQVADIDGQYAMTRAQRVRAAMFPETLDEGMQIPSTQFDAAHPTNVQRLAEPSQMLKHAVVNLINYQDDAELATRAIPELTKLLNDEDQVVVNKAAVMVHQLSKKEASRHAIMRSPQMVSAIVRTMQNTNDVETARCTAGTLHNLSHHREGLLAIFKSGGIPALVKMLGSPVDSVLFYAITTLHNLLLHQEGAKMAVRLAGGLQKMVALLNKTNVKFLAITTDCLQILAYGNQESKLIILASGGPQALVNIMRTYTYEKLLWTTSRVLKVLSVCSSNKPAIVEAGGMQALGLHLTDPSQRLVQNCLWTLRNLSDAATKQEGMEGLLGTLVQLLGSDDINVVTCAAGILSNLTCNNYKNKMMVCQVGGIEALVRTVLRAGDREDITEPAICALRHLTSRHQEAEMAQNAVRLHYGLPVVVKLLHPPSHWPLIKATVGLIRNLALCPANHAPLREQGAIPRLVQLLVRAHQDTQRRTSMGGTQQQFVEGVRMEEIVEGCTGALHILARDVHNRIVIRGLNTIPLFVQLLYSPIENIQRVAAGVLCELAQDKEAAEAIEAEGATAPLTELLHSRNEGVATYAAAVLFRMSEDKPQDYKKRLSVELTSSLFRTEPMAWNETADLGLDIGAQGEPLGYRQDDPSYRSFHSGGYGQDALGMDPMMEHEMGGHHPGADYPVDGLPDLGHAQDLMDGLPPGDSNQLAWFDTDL

[2] = molecular target: T2, beta-catenin/TCF4 engagement (Homo sapiens, UniProt P35222); experiment: Nano-BRET target engagement assay (B-cat-Halo & TCF4-Luc in HEK293 cells); assay type: cell-based; conditions: read-out: NanoBRET Abs IC50
T2 construct: expressed in transfected cells; host or cells: HEK293
T2 sequence (P35222 1-781): T1 sequence (P35222 1-781)

Row | SMILES | pIC50 [1] | pIC50 [2]
1 | CCSSCCOC(=O)C[C@@H]1NC(=O)[C@]2(CC=CCCCC3(CCCC=CCCCOC(=O)N4CC[C@@](C(=O)N[C@@H](Cc5ccsc5)C(=O)N[C@@H](Cc5csc6ccccc56)C(=O)N[C@@H](CCC(N)=O)C(N)=O)(C4)NC(=O)[C@H](CC(C)C)NC(=O)[C@H](Cc4ccccc4)NC(=O)[C@H](C)NC(=O)[C@H](C)NC(=O)[C@H](CC(=O)O)NC(=O)[C@H](CC(=O)O)NC3=O)NC(=O)[C@H](CC(C)(C)C)NC1=O)CCCN2C(C)=O (stereo partly drawn) [I-1963, Ac-PL3-[EtSSEt]AspE-Npg-B5-Asp-Asp-Ala-Ala-Phe-Leu-PyrS2-3Thi-BztA-Gln-NH2] | 6.49 | 4.59
2 | CCSSCCOC(=O)C[C@@H]1NC(=O)[C@H](CC(=O)O)NC(=O)C2(CCCC=CCCCOC(=O)N3CC[C@@](C(=O)N[C@@H](Cc4ccsc4)C(=O)N[C@@H](Cc4csc5ccccc45)C(=O)N[C@@H](CCC(N)=O)C(N)=O)(C3)NC(=O)[C@H](CC(C)C)NC(=O)[C@H](Cc3ccccc3)NC(=O)[C@H](C)NC(=O)[C@H](C)NC1=O)CCCC=CC[C@]1(CCCN1C(C)=O)C(=O)N[C@@H](CC(=O)O)C(=O)N[C@@H](CC(C)(C)C)C(=O)N2 (stereo partly drawn) [I-1965, Ac-PL3-Asp-Npg-B5-Asp-[EtSSEt]AspE-Ala-Ala-Phe-Leu-PyrS2-3Thi-BztA-Gln-NH2] | 6.20 | 4.60
3 | CC(=O)N1CCC[C@]12CC=CCCCC[C@@](C)(C(=O)N[C@@H](CC(=O)O)C(=O)N[C@@H](CC(=O)O)C(=O)N[C@@H](C)C(=O)N[C@@H](C)C(=O)N[C@@H](Cc1ccccc1)C(=O)N[C@@H](CC(C)C)C(=O)NC(C)(C)C(=O)N[C@@H](Cc1ccsc1)C(=O)N[C@@H](Cc1csc3ccccc13)C(=O)N[C@@H](CCC(N)=O)C(N)=O)NC(=O)[C@H](CC(C)(C)C)NC(=O)[C@H](CC(=O)O)NC2=O [I-1978, Ac-PL3-Asp-Npg-S6-Asp-Asp-Ala-Ala-Phe-Leu-Aib-3Thi-BztA-Gln-NH2] | 6.84 | < 4.70
4 | CC(=O)N1CCC[C@]12CC=CC[C@@](C)(C(=O)N[C@@H](CC(=O)O)C(=O)N[C@@H](CC(=O)O)C(=O)N[C@@H](C)C(=O)N[C@@H](C)C(=O)N[C@@H](Cc1ccccc1)C(=O)N[C@@H](CC(C)C)C(=O)NC(C)(C)C(=O)N[C@@H](Cc1ccsc1)C(=O)N[C@@H](Cc1csc3ccccc13)C(=O)N[C@@H](CCC(N)=O)C(N)=O)NC(=O)[C@H](CC(C)(C)C)NC(=O)[C@H](CC(=O)O)NC2=O [I-1980, Ac-PL3-Asp-Npg-S3-Asp-Asp-Ala-Ala-Phe-Leu-Aib-3Thi-BztA-Gln-NH2] | 6.63 | < 4.70
5 | CC(=O)N1CCC[C@]12CCCC[C@@](C)(C(=O)N[C@@H](CC(=O)O)C(=O)N[C@@H](CC(=O)O)C(=O)N[C@@H](C)C(=O)N[C@@H](C)C(=O)N[C@@H](Cc1ccccc1)C(=O)N[C@@H](CC(C)C)C(=O)NC(C)(C)C(=O)N[C@@H](Cc1ccsc1)C(=O)N[C@@H](Cc1csc3ccccc13)C(=O)N[C@@H](CCC(N)=O)C(N)=O)NC(=O)[C@H](CC(C)(C)C)NC(=O)[C@H](CC(=O)O)NC2=O [I-1983, Ac-PL3-Asp-Npg-S3-Asp-Asp-Ala-Ala-Phe-Leu-Aib-3Thi-BztA-Gln-NH2] | 6.73 | < 4.70

Stronger by pIC50 [1], values ahead:

Row | pIC50 [1] | pIC50 [2] | SMILES
6 | 7.49 | 5.11 | CC(=O)N1CCC[C@]12CC=CCCCC1(CCCC=CCCCOC(=O)N3CC[C@@](C(=O)N[C@@H](Cc4ccccc4Cl)C(=O)N[C@@H](Cc4csc5ccccc45)C(=O)N[C@@H](C)C(N)=O)(C3)NC(=O)[C@H](C)NC(=O)[C@H](Cc3ccccc3)NC(=O)[C@H](C)NC(=O)[C@H](C)NC(=O)[C@H](Cc3cccc(C(=O)O)c3)NC(=O)[C@H](CC(=O)O)NC1=O)NC(=O)[C@H](CC(C)(C)C)NC(=O)[C@H](CC(=O)O)NC2=O (stereo partly drawn) [I-2023, Ac-PL3-Asp-Npg-B5-Asp-3COOHF-Ala-Ala-Phe-Ala-PyrS2-2C1F-BztA-Ala-NH2]
7 | 7.11 | 4.75 | CC(=O)N1CCC[C@]12CC=CCCCC1(CCCC=CCCCOC(=O)N3CC[C@@](C(=O)N[C@@H](Cc4ccccc4Cl)C(=O)N[C@@H](Cc4csc5ccccc45)C(=O)N[C@H](C(N)=O)C(C)C)(C3)NC(=O)[C@H](C)NC(=O)[C@H](Cc3ccccc3)NC(=O)[C@H](C)NC(=O)[C@H](C)NC(=O)[C@H](Cc3cccc(C(=O)O)c3)NC(=O)[C@H](CC(=O)O)NC1=O)NC(=O)[C@H](CC(C)(C)C)NC(=O)[C@H](CC(=O)O)NC2=O (stereo partly drawn) [I-2024, Ac-PL3-Asp-Npg-B5-Asp-3COOHF-Ala-Ala-Phe-Ala-PyrS2-2C1F-BztA-Val-NH2]
8 | 7.59 | 5.01 | CC(=O)N1CCC[C@]12CC=CCCCC1(CCCC=CCCCOC(=O)N3CC[C@@](C(=O)N[C@@H](Cc4ccccc4Cl)C(=O)N[C@@H](Cc4csc5ccccc45)C(=O)N[C@H](C)C(N)=O)(C3)NC(=O)[C@H](C)NC(=O)[C@H](Cc3ccccc3)NC(=O)[C@H](C)NC(=O)[C@H](C)NC(=O)[C@H](Cc3cccc(C(=O)O)c3)NC(=O)[C@H](CC(=O)O)NC1=O)NC(=O)[C@H](CC(C)(C)C)NC(=O)[C@H](CC(=O)O)NC2=O (stereo partly drawn) [I-2026, Ac-PL3-Asp-Npg-B5-Asp-3COOHF-Ala-Ala-Phe-Ala-PyrS2-2C1F-BztA-dAla-NH2]
9 | 7.89 | 5.39 | CC(=O)N1CCC[C@]12CC=CCCCC1(CCCC=CCCCOC(=O)N3CC[C@@](C(=O)N[C@@H](Cc4ccccc4Cl)C(=O)N[C@@H](Cc4csc5ccccc45)C(=O)N[C@@H](C)C(N)=O)(C3)NC(=O)[C@H](CO)NC(=O)[C@H](Cc3ccccc3)NC(=O)[C@H](C)NC(=O)[C@H](C)NC(=O)[C@H](Cc3cccc(C(=O)O)c3)NC(=O)[C@H](CC(=O)O)NC1=O)NC(=O)[C@H](CC(C)(C)C)NC(=O)[C@H](CC(=O)O)NC2=O (stereo partly drawn) [I-2027, Ac-PL3-Asp-Npg-B5-Asp-3COOHF-Ala-Ala-Phe-Ser-PyrS2-2C1F-BztA-Ala-NH2]
10 | 7.49 | 4.75 | CC(=O)N1CCC[C@]12CC=CCCCC1(CCCC=CCCCOC(=O)N3CC[C@@](C(=O)N[C@@H](Cc4ccccc4Cl)C(=O)N[C@@H](Cc4csc5ccccc45)C(=O)N[C@H](C(N)=O)C(C)C)(C3)NC(=O)[C@H](CO)NC(=O)[C@H](Cc3ccccc3)NC(=O)[C@H](C)NC(=O)[C@H](C)NC(=O)[C@H](Cc3cccc(C(=O)O)c3)NC(=O)[C@H](CC(=O)O)NC1=O)NC(=O)[C@H](CC(C)(C)C)NC(=O)[C@H](CC(=O)O)NC2=O (stereo partly drawn) [I-2028, Ac-PL3-Asp-Npg-B5-Asp-3COOHF-Ala-Ala-Phe-Ser-PyrS2-2C1F-BztA-Val-NH2]
11 | 7.46 | 4.58 | CC(=O)N1CCC[C@]12CC=CCCCC1(CCCC=CCCCOC(=O)N3CC[C@@](C(=O)N[C@@H](Cc4ccccc4Cl)C(=O)N[C@@H](Cc4csc5ccccc45)C(=O)N[C@@H](Cc4ccccc4)C(N)=O)(C3)NC(=O)[C@H](CO)NC(=O)[C@H](Cc3ccccc3)NC(=O)[C@H](C)NC(=O)[C@H](C)NC(=O)[C@H](Cc3cccc(C(=O)O)c3)NC(=O)[C@H](CC(=O)O)NC1=O)NC(=O)[C@H](CC(C)(C)C)NC(=O)[C@H](CC(=O)O)NC2=O (stereo partly drawn) [I-2029, Ac-PL3-Asp-Npg-B5-Asp-3COOHF-Ala-Ala-Phe-Ser-PyrS2-2C1F-BztA-Phe-NH2]
12 | 7.66 | 5.41 | CC(=O)N1CCC[C@]12CC=CCCCC1(CCCC=CCCCOC(=O)N3CC[C@@](C(=O)N[C@@H](Cc4ccccc4Cl)C(=O)N[C@@H](Cc4csc5ccccc45)C(=O)N[C@H](C)C(N)=O)(C3)NC(=O)[C@H](CO)NC(=O)[C@H](Cc3ccccc3)NC(=O)[C@H](C)NC(=O)[C@H](C)NC(=O)[C@H](Cc3cccc(C(=O)O)c3)NC(=O)[C@H](CC(=O)O)NC1=O)NC(=O)[C@H](CC(C)(C)C)NC(=O)[C@H](CC(=O)O)NC2=O (stereo partly drawn) [I-2030, Ac-PL3-Asp-Npg-B5-Asp-3COOHF-Ala-Ala-Phe-Ser-PyrS2-2C1F-BztA-dAla-NH2]
